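96-well plates; 48 h exposure; 5 concentrations. Endpoints by linear interpolation between flanking doses. Not reached: highest tested concentration assigned. At the TGI there is no net growth.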
Key:
Test in all cases: DTP human tumour cell line panel, 48 h
[1] = tested on: OVCAR-3 ovarian
[2] = tested on: NCI/ADR-RES ovarian
[3] = tested on: SN12C renal
[4] = tested on: SK-MEL-28 melanoma
[5] = tested on: UO-31 renal
[6] = tested on: OVCAR-5 ovarian
[7] = tested on: SNB-19 CNS
[8] = tested on: MALME-3M melanoma
[9] = tested on: HL-60(TB) leukemia
[10] = tested on: PC-3 prostate
[11] = tested on: SF-295 CNS
[12] = tested on: DU-145 prostate
[13] = tested on: SF-268 CNS
[14] = tested on: K-562 leukemia
[15] = tested on: SK-MEL-2 melanoma
[16] = tested on: SK-OV-3 ovarian
[17] = tested on: NCI-H460 lung
[18] = tested on: LOX IMVI melanoma
[19] = tested on: CCRF-CEM leukemia
[20] = tested on: HCC-2998 colon
[21] = tested on: 786-0 renal
[22] = tested on: BT-549 breast
[23] = tested on: IGROV1 ovarian
[24] = tested on: CAKI-1 renal
[25] = tested on: EKVX NSCLC
[26] = tested on: SK-MEL-5 melanoma
[27] = tested on: TK-10 renal
[28] = tested on: A549 NSCLC
[29] = tested on: UACC-257 melanoma
[30] = tested on: HOP-92 NSCLC
[31] = tested on: HCT-116 colon
[32] = tested on: HT29 colon
[33] = tested on: HS 578T breast
[34] = tested on: MDA-MB-435
[35] = tested on: ACHN renal
[36] = tested on: MOLT-4 leukemia
[37] = tested on: MCF7 breast
[38] = tested on: OVCAR-4 ovarian
[39] = tested on: U251 CNS
[40] = tested on: UACC-62 melanoma
[41] = tested on: SW-620 colon
[42] = tested on: HCT-15 colon
[43] = tested on: KM12 colon
[44] = tested on: SF-539 CNS
[45] = tested on: MDA-MB-231 breast
[46] = tested on: NCI-H522 lung
[47] = tested on: RXF 393 renal
[48] = tested on: M14 melanoma
[49] = tested on: SR leukemia
[50] = tested on: HOP-62 NSCLC
[51] = tested on: A498 renal
[52] = tested on: MDA-N
[53] = tested on: NCI-H226 lung
[54] = tested on: COLO 205 colon
[55] = tested on: T-47D breast
[56] = tested on: SNB-75 CNS
[57] = tested on: RPMI-8226 leukemia
[58] = tested on: NCI-H23 lung
[59] = tested on: OVCAR-8 ovarian

## Cc1noc(C)c1-n1nc2ccc3nonc3c2n1
[1]
  TGI: > 100 µM
[2]
  TGI: > 100 µM
[3]
  TGI: > 100 µM
[4]
  TGI: > 100 µM
[5]
  TGI: > 100 µM
[6]
  TGI: > 100 µM
[7]
  TGI: > 76.4 µM
[8]
  TGI: > 100 µM
[9]
  TGI: > 100 µM
[10]
  TGI: > 100 µM
[11]
  TGI: 98.6 µM
[12]
  TGI: > 100 µM
[13]
  TGI: > 100 µM
[14]
  TGI: > 100 µM
[15]
  TGI: > 100 µM
[16]
  TGI: > 73.4 µM
[17]
  TGI: > 100 µM
[18]
  TGI: > 100 µM
[19]
  TGI: > 100 µM
[20]
  TGI: > 100 µM
[21]
  TGI: > 93 µM
[22]
  TGI: > 100 µM
[23]
  TGI: > 100 µM
[24]
  TGI: > 100 µM
[25]
  TGI: > 92.4 µM
[26]
  TGI: > 100 µM
[27]
  TGI: > 82 µM
[28]
  TGI: > 100 µM
[29]
  TGI: > 100 µM
[30]
  TGI: > 86.4 µM
[31]
  TGI: > 100 µM
[32]
  TGI: > 100 µM
[33]
  TGI: > 88.1 µM
[34]
  TGI: > 100 µM
[35]
  TGI: > 100 µM
[36]
  TGI: > 100 µM
[37]
  TGI: > 100 µM
[38]
  TGI: > 100 µM
[39]
  TGI: > 75.4 µM
[40]
  TGI: > 100 µM
[41]
  TGI: > 100 µM
[42]
  TGI: > 100 µM
[43]
  TGI: > 100 µM
[44]
  TGI: > 71.4 µM
[45]
  TGI: > 100 µM
[46]
  TGI: > 100 µM
[47]
  TGI: 51.5 µM
[48]
  TGI: > 100 µM
[49]
  TGI: > 100 µM
[50]
  TGI: 59.7 µM
[51]
  TGI: 66.8 µM
[52]
  TGI: > 100 µM
[53]
  TGI: > 100 µM
[54]
  TGI: > 100 µM
[55]
  TGI: > 100 µM
[56]
  TGI: > 82.4 µM
[57]
  TGI: > 100 µM
[58]
  TGI: > 100 µM
[59]
  TGI: > 100 µM

## O=C1c2ccccc2C(=O)N1CCCC(=O)n1cc(F)c(=O)[nH]c1=O
[1]
  TGI: > 79 µM
[2]
  TGI: > 100 µM
[3]
  TGI: > 100 µM
[4]
  TGI: > 100 µM
[5]
  TGI: > 100 µM
[6]
  TGI: > 100 µM
[7]
  TGI: > 100 µM
[8]
  TGI: > 100 µM
[9]
  TGI: > 100 µM
[10]
  TGI: > 100 µM
[11]
  TGI: > 100 µM
[12]
  TGI: > 100 µM
[13]
  TGI: > 100 µM
[14]
  TGI: > 100 µM
[15]
  TGI: > 100 µM
[16]
  TGI: > 100 µM
[17]
  TGI: > 100 µM
[18]
  TGI: > 100 µM
[19]
  TGI: > 100 µM
[20]
  TGI: > 100 µM
[21]
  TGI: > 100 µM
[22]
  TGI: > 100 µM
[23]
  TGI: > 100 µM
[24]
  TGI: > 100 µM
[25]
  TGI: > 100 µM
[26]
  TGI: > 100 µM
[27]
  TGI: > 100 µM
[28]
  TGI: > 100 µM
[29]
  TGI: > 100 µM
[30]
  TGI: > 100 µM
[31]
  TGI: > 100 µM
[32]
  TGI: > 100 µM
[33]
  TGI: > 100 µM
[34]
  TGI: > 100 µM
[35]
  TGI: > 100 µM
[36]
  TGI: > 100 µM
[37]
  TGI: > 100 µM
[38]
  TGI: > 100 µM
[39]
  TGI: > 100 µM
[40]
  TGI: > 100 µM
[41]
  TGI: > 100 µM
[42]
  TGI: > 100 µM
[43]
  TGI: > 100 µM
[44]
  TGI: > 100 µM
[45]
  TGI: > 100 µM
[46]
  TGI: > 100 µM
[47]
  TGI: > 100 µM
[48]
  TGI: > 100 µM
[49]
  TGI: > 100 µM
[50]
  TGI: > 24.6 µM
[51]
  TGI: > 100 µM
[52]
  TGI: > 100 µM
[53]
  TGI: > 100 µM
[54]
  TGI: > 100 µM
[55]
  TGI: > 100 µM
[56]
  TGI: > 100 µM
[57]
  TGI: > 77.5 µM
[58]
  TGI: > 100 µM
[59]
  TGI: > 100 µM

Reference: PubChem BioAssay (NCI)
